Reference: PMC2151622 (The Journal of General Physiology, 2007)
Substitutions are numbered along the chain they refer to.

Key:
Type in all cases: cell-based, rabbit
D444E-EAAC1 = target: T1, D444E-EAAC1 (Oryctolagus cuniculus, UniProt P31597, D444E); assay: Substrate-induced steady-state transport currents in oocytes expressing D444E; conditions: 2 mM L-aspartate, other concentrations not given
T1 sequence (P31597 1-524 D444E): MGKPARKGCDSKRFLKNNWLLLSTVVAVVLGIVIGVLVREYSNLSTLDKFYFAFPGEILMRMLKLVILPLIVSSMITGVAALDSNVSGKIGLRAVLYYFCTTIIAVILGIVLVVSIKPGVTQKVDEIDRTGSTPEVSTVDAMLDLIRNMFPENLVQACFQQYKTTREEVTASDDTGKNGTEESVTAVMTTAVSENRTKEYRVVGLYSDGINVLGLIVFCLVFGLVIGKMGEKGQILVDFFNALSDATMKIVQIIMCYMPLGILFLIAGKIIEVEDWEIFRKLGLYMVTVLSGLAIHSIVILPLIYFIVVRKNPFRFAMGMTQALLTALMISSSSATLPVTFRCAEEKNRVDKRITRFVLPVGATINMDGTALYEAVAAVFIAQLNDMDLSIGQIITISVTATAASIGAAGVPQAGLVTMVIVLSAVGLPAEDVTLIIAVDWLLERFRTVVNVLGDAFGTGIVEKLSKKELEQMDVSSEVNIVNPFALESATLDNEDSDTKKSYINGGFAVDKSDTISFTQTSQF

WT-EAAC1 [1] = target: T2, WT-EAAC1 (Oryctolagus cuniculus, UniProt P31597); assay: Substrate-induced steady-state transport currents in oocytes expressing WT; conditions: 2 mM
T2 sequence (P31597 1-524): T1 sequence (P31597 1-524 D444E) with E444D

D444C mutant EAAC1 = target: T3, D444C mutant EAAC1 (Oryctolagus cuniculus, UniProt P31597, D444C)
T3 sequence (P31597 1-524 D444C): T1 sequence (P31597 1-524 D444E) with E444C

D444C-EAAC1 = target: T4, D444C-EAAC1 (Oryctolagus cuniculus, UniProt P31597, D444C); assay: Substrate-induced steady-state transport currents in oocytes expressing D444C; conditions: 2 mM L-aspartate (Fig. 1 C), other concentrations not given
T4 sequence (P31597 1-524 D444C): T1 sequence (P31597 1-524 D444E) with E444C

WT-EAAC1 [2] = target: T2, WT-EAAC1; conditions: WT-EAAC1 in HeLa cells; 5 mM unlabeled succinate
D444E mutant EAAC1 = target: T5, D444E mutant EAAC1 (Oryctolagus cuniculus, UniProt P31597, D444E)
T5 sequence (P31597 1-524 D444E): T1 sequence (P31597 1-524 D444E)

Structure (SMILES)	Induction of steady-state transport currents (D444E-EAAC1)	Induction of steady-state transport currents (WT-EAAC1 [1])	Inhibition of D-[3H]-aspartate uptake (D444C mutant EAAC1)	Induction of steady-state transport currents (D444C-EAAC1)	Inhibition of D-[3H]-aspartate uptake (WT-EAAC1 [2])	Inhibition of D-[3H]-aspartate uptake (D444E mutant EAAC1)
N[C@@H](CC(=O)O)C(=O)O [L-Aspartate, L-aspartate]	not observed					
O=C(O)CCC(=O)O [Succinate, succinate]		No steady-state transport currents	fully inhibited	unable to induce steady-state currents	In contrast to WT	much less sensitive
